According to US20190071416A1, “COMPOUNDS FOR TREATMENT OF CANCER AND EPIGENETICS” (Agency For Science, Technology and Research, priority 2015, published 2019):
Read-outs that look alike come from different tables or passages of the source.

Assays:
SMYD3 [1] = target: T1, SMYD3 (Homo sapiens, UniProt Q9H7B4); test: SMYD3 biochemical assay (MTase-Glo, MAP3K2 peptide substrate)
T1 sequence (Q9H7B4 1-428): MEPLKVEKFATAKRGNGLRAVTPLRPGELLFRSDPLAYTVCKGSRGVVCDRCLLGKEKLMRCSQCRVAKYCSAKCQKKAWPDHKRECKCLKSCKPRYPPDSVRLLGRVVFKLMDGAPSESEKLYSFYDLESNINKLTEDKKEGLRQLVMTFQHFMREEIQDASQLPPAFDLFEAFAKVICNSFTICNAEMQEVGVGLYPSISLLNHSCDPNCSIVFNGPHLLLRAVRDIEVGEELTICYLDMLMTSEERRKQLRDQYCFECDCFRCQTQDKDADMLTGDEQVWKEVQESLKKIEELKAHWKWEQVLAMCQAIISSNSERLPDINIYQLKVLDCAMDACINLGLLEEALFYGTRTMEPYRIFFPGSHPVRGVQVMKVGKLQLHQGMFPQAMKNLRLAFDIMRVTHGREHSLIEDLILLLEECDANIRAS
How it was run: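 Methylation of MAP3K2 peptide (10 µM final) with SAM (1.0 µM final) by SMYD3, 30 min at room temperature. SAH formed was enzymatically converted to ATP and detected as luminescence with MTase-Glo reagents; IC50 by non-linear regression.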

A549 = test: Cell proliferation assay (CellTiter-Glo), A549; format: cell-based; details: Homo sapiens, A549, 72 h; 3 days
Method: (§1) The cell proliferation assays were tested in several cell lines, including HepG2,HCT116, A549, HPAF-II, CFPAC-1,HuH7, SNU398,Hep3B, and HEK293. All cell lines are from ATCC. HepG2, HPAF-II and HEK293 are cultured in Eagle's MEM media supplemented with fetal bovine serum. HCT116 is cultured in McCoy media supplemented with fetal bovine serum. Huh-7 is cultured in DMEM low glucose (1000 mg/L glucose) with 10% FBS, 1% L-Glutamate and 1% Penicillin/Streptomycin. SNU398 is cultured in RPMI with 10% FBS with 1% L-Glutamate and 1% Penicillin/Streptomycin. Hep3B is cultured in Eagle's MEM with 10% FBS, 1% L-Glutamate and 1% Penicillin/Streptomycin. A549 is cultured in RPMI media supplemented with fetal bovine serum while CFPAC-1 is cultured in IMDM media supplemented with fetal bovine serum. All media and serum are purchased from Gibco (Lifetech). All cells were grown in a temperature controlled incubator at 37° C. and 5% CO2.
(§2) Cell proliferation assay was performed using CellTiter-Glo Luminescent Cell Viability Assay (Promega) following manufacturer's instructions. The cell-line of interest was treated with compounds that were serial diluted in its respective media. Plates were incubated for 3 days at 37° C. in 5% CO2. After 3 days, an equal volume of Cell Titer Glo reagent was added. Plates were rocked on a rotator for 2 h. 100 μL of each well were transferred to a 96-well opaque plate, and luminescence emitted was measured with the Tecan Safire II.

HCT-116 = test: Cell proliferation assay (CellTiter-Glo), HCT-116; format: cell-based; details: Homo sapiens, HCT-116, 72 h; 3 days
Method: as §1, §2

CFPAC-1 = test: Cell proliferation assay (CellTiter-Glo), CFPAC-1; format: cell-based; details: Homo sapiens, CFPAC-1, 72 h; 3 days
Method: as §1, §2

HPAF-II = test: Cell proliferation assay (CellTiter-Glo), HPAF-II; format: cell-based; details: Homo sapiens, 72 h, 3 days
Method: as §1, §2

HepG2 = test: Cell proliferation assay (CellTiter-Glo), HepG2; format: cell-based; details: Homo sapiens, HepG2, 72 h; 3 days
Method: as §1, §2

Hep G2 cells = test: Soft agar colony formation assay; format: cell-based, human; details: Homo sapiens, HepG2
Method: Hep G2 cells were purchased from ATCC. Hep G2 cells were maintained in Eagle's Minimum Essential Medium (Sigma, Cat No: #M0643) supplemented with 10% Fetal Bovine Serum (Hyclone, Cat No: SV30087.03), 2 mM L-glutamine, 100 units/mL penicillin and 100 μg/mL streptomycin (Life Technologies, Cat No: 10378-016). The soft agar assays were performed in concordance to the ETC approved method report for soft agar assay (ETC document number: RD0019). Briefly, 600 μL of 0.6% agar was added to 24-well plate (Corning, Cat No: 3738) to form the base layer. This is followed by the addition of 500 μL of 0.36% agar middle layer (containing 10′000Hep G2 cells). Lastly, 500 μL of fresh growth medium (containing the corresponding serially diluted compound) was added above the middle layer. The plates were incubated at 37° C. with 5% carbon dioxide in a humidified incubator for 1 to 2 weeks. 70 μL of thiazolyl blue tetrazolium bromide (5 mg/mL, Sigma Cat No: M5655) was added to each well and the plates were incubated at 37° C. for 2 h. Colonies were counted with GelCount® instrument (Oxford Optronix). The colony counts were plotted against compound concentrations using the Graphpad Prism software. In addition, the software was used to perform non-linear curve fitting and the calculation of IC50.

[2] = target: ubiquitin specific protease 7 (Homo sapiens, UniProt Q93009); details: cited from earlier work
[3] = Human liver microsomes stability test; format: in vitro ADME
[4] = Mouse liver microsomes stability test; format: in vitro ADME
[5] = test system: MAP3K2 methylation (me2/me3-Lys 260); test: SMYD3 mediated methylation of MAP3K2 in HEK293 cells (Western blot); format: cell-based, Human; details: 25 μM
Method: (§3) The cells were seeded in 6 well plates. After seeding for 24 h, the cells were treated with either DMSO or 25 μM compound and incubated for 24 hr. The cells were trypsinized and the lysate was extracted with RIPA buffer (Santa Cruz). The total protein concentration of lysate is quantified using the standard Bradford assay (Biorad protein assay, microplate standard assay).
Western blot analysis for detecting methylated MAP3K2 was carried out using a customized Anti-me2/me3-Lys 260 MAP3K2 at 1:500 and the total MAP3K2 was detected using Anti-MEKK2 (AB33918) using a 1:10,000 dilution.
B019 was further tested for its ability to inhibit SMYD3 in cells through its effects on cellular MAP3K2 methylation. This was performed using an antibody against the MAP3K2 (me2/me3), Anti-ME2/ME3-K260-MAP3K2 (1:500) and total MAP3K2, Anti-MEKK2 #ab33918 (1:10,000).

SMYD3 [6] = target: T1, SMYD3; details: assay reported in the publication; cited from earlier work
SMYD3 [7] = target: T1, SMYD3; test: Target engagement assay, SMYD3 levels by Western blot in HEK293 cells transfected with Myc-SMYD3; format: cell-based; set-up: host or cells: HEK293 (ATCC); details: compared to B019
Method: The target engagement assay was performed with HEK293 that is engineered to overexpress SMYD3 (HEK293-SMYD3). The plasmid SMYD3 (Myc-DDK-tagged-Human SET and MYND domain containing 3) was purchased from Origene (RC230064) and transfected with lipofectamine 2000 (Invitrogen) into HEK293 (ATCC). The cell line is cultured in Eagle's MEM media supplemented with fetal bovine serum and geneticin (Invitrogen). Presence of over-expressed SMYD3 is confirmed with western blot with antibody against SMYD3 and the MYC tag as well as with RT-PCR with SMYD3 primers.
as §3
Western blot analysis was performed using antibody against SMYD3 in HEK293 cells over-expressing SMYD3 (HEK293-SMYD3) treated with compound at different time points. 15.0 μg of cell lysate was diluted in 2× Laemmli sample buffer (Bio-Rad) and boiled at 100° C. on heat block for 5 min. Lysates were separated using NuPAGE® 4-12% Bis-Tris precast polyacrylamide gels (Lifetech) at 200 V, […] for 40 min. […]

[8] = Table 1, MAP3K2 peptide as substrate, read-out: IC50
[9] = Table 2, read-out: Biochemical assay IC50
[10] = Table 3, MTase assay, MAP3K2 peptide substrate, read-out: IC50
[11] = Table 4, prior art compounds, read-out: IC50

ubiquitin specific protease 7, sequence (Q93009 whole entry): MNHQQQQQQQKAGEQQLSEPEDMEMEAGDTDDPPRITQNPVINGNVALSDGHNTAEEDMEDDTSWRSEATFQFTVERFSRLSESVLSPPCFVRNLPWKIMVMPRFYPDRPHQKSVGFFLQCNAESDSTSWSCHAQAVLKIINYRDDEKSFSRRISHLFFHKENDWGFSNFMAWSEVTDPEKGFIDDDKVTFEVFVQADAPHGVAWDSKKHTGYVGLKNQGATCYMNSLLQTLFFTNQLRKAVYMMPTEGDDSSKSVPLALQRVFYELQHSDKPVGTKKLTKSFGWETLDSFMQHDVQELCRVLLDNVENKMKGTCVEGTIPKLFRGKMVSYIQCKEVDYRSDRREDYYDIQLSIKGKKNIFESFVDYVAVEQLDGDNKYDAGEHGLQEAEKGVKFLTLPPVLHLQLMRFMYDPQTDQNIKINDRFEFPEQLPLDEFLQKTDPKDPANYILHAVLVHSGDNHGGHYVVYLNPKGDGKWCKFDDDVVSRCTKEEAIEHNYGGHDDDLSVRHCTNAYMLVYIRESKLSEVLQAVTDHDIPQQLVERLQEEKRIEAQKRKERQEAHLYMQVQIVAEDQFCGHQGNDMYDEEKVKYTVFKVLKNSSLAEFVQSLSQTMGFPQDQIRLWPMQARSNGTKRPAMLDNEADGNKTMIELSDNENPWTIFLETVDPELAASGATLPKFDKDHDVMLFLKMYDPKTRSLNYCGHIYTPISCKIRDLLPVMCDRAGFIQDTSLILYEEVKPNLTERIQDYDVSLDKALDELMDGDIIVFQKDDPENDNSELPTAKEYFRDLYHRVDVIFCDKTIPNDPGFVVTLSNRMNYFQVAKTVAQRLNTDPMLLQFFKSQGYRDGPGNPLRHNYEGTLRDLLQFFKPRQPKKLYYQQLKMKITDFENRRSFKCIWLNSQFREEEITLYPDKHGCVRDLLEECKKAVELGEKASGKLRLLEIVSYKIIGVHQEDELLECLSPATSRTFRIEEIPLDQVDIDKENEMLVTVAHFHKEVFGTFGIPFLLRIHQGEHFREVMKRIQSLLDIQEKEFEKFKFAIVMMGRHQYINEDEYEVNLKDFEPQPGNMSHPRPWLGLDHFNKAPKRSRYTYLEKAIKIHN

Structure (SMILES) | IC50 (SMYD3 [1]; [8]) | IC50 (SMYD3 [1]; [9]) | IC50 (SMYD3 [1]; [10]) | GI50 (A549) | GI50 (HCT-116) | GI50 (HepG2) | activity against SMYD3 (SMYD3 [1]) | IC50 (SMYD3 [1]; [11]) | GI50 (CFPAC-1) | GI50 (HPAF-II) | also measured
CCCOC(=O)N1CCN(C(=O)c2ccc3c(Cl)c4c(nc3c2)CCC(CCN)C4)CC1 (centres unmarked) [A066, Propyl 4-(7-(2-aminoethyl)-9-chloro-5,6,7,8-tetrahydroacridine-3-carbonyl)piperazine-1-carboxylate] | 0.0461 µM | 0.0461 µM | 0.3 µM | 18.4 µM | 24.9 µM | 33.1 µM | – | – | 15.3 µM | 11.1 µM | –
CCCOC(=O)N1CCN(C(=O)c2ccc3c(Cl)c4c(nc3c2)CC(c2ccccn2)CC4)C[C@H]1C (stereo partly drawn) [A074, Propyl (2R)-4-(9-chloro-6-(pyridin-2-yl)-5,6,7,8-tetrahydroacridine-3-carbonyl)-2-methylpiperazine-1-carboxylate] | 0.152 µM | 0.152 µM | 0.15 µM | 15.8 µM | 11.4 µM | 10.7 µM | – | – | 36.9 µM | 50.4 µM | IC50 (Hep G2 cells; Hep G2, soft agar): 0.71 µM; inhibition at 10 µM (Hep G2 cells; highest concentration tested (10 μM)): ~100%
CCCOC(=O)N1CCN(C(=O)c2ccc3c(Cl)c4c(nc3c2)CC(CCN)CC4)[C@@H](C)C1 (stereo partly drawn) [A088, Propyl (3S)-4-(6-(2-aminoethyl)-9-chloro-5,6,7,8-tetrahydroacridine-3-carbonyl)-3-methylpiperazine-1-carboxylate] | 0.092 µM | 0.092 µM | 0.09 µM | 28.4 µM | 16.1 µM | 17.1 µM | – | – | 21.9 µM | 33.7 µM | –
CN(C)Cc1cc(-c2cc(Cl)c3ccc(C(=O)N4CCN(C(=O)c5cn(C6CC6)nn5)CC4)cc3n2)ccc1F [E020, (4-Chloro-2-(3-((dimethylamino)methyl)-4-fluorophenyl)quinolin-7-yl)(4-(1-cyclopropyl-1H-1,2,3-triazole-4-carbonyl)piperazin-1-yl)methanone] | – | – | 0.058 µM | – | – | – | – | – | – | – | –
CCOC(=O)N1CCN(C(=O)c2ccc3c(Cl)c4c(nc3c2)CCCC4)CC1 [X4, ethyl 4-(9-chloro-5,6,7,8-tetrahydroacridine-3-carbonyl)piperazine-1-carboxylate, reference compound] | – | – | – | – | – | – | – | – | – | – | IC50 (SMYD3 [1]; read-out: active against SMYD3): 6.2 µM; half-life ([3]; read-out: half-life, t1/2): 9 min; half-life ([4]; read-out: half-life, t1/2): 4 min; inhibition of methylation of MAP3K2 in cells [5]: unable to inhibit
O=C1Cc2cc(C(=O)N[C@H]3C[C@H]4CC[C@@H](C3)N4S(=O)(=O)CC3CCN(CCCC(F)(F)F)CC3)c(Cl)cc2N1 [X5] | – | – | – | – | – | – | – | – | – | – | active against SMYD3 (SMYD3 [6]): 3 nM
CCOC(=O)N1CCN(C(=O)c2ccc3c(Cl)c4c(nc3c2)CCCC4)CC1 [ethyl 4-(9-chloro-5,6,7,8-tetrahydroacridine-3-carbonyl)piperazine-1-carboxylate] | – | – | – | – | – | – | moderately active | – | – | – | metabolic stability ([3]; high metabolic clearance): poor; metabolic stability ([4]; high metabolic clearance): poor; target engagement (SMYD3 [7]): poor

Continued, in another order:

IC50 (SMYD3 [1]; [8]) | IC50 (SMYD3 [1]; [9]) | IC50 (SMYD3 [1]; [10]) | GI50 (A549) | GI50 (HCT-116) | GI50 (HepG2) | activity against SMYD3 (SMYD3 [1]) | IC50 (SMYD3 [1]; [11]) | Structure (SMILES) | GI50 (CFPAC-1) | GI50 (HPAF-II) | also measured
– | – | – | – | – | – | inactive | > 250 µM | NC(=O)C1CCN(CC(=O)Nc2ccc(Br)cc2)CC1 [X1, reference compound] | – | – | –
– | – | – | – | – | – | not active | 750 µM | Cc1cccc(CN2CCC(CNC(=O)c3ccc4c(Cl)c5c(nc4c3)CCCC5)CC2)c1 [X2, reference compound] | – | – | activity against ubiquitin specific protease 7 [2]: act against
– | – | – | – | – | – | not active | 750 µM | CN1CCC(N2CCN(C(=O)c3ccc4c(Cl)c5c(nc4c3)CCCC5)CC2)CC1 [X3, reference compound] | – | – | activity against ubiquitin specific protease 7 [2]: act against
